Test results from patent publication US20170368082A1, “FORMULATIONS OF BRINCIDOFOVIR” (priority 2016, published 2017).

Assay: Tissue distribution by quantitative whole-body autoradiography (QWBA)
Type: in vivo, male Sprague Dawley and Long-Evans rats
Settings: for AUCall Ratio (PO/IV) / Cmax Ratio (PO/IV): Group 7 vs Group 4
Method: The study utilized 4 groups of male SD rats (albino), and 3 groups of male LE rats (pigmented); a total of 39 rats. All animals were obtained from Hilltop Lab Animals, Inc. (Scottdale, Pa.). […] Rats in Group 5 were administered a single 2-h IV infusion of [^14C]brincidofovir at a target dose of 2 mg/kg. […] Three dosing formulations (one for high dose IV, one for low dose IV, and one for PO dose) were prepared at QPS on the day of dosing. The IV formulation for Groups 1, 2, 3, and 4 contained a vehicle of 10 mM sodium phosphate buffer in 5% dextrose solution at pH 8.0(±0.1).
Each animal, at their respective termination time points, was euthanized for QWBA analysis immediately after blood collection. One rat per time point per Group was euthanized as listed below.
The blood samples were maintained on wet ice (approximately 4° C.) and then centrifuged to obtain plasma within 1 h of the blood collection time. Centrifuge settings were recorded in the study notebook. Duplicate aliquots of plasma (0.050 mL) were analyzed for radioactivity using direct counting by LSC, and residual plasma was stored at approximately −70° C. and was saved for possible future analysis under a separate study protocol. Residual red blood cells were discarded as radioactive waste.
The pinna, distal limbs, hair, and tail were removed from each frozen carcass and each frozen carcass was embedded in an aqueous suspension of approximately 2% (w/v) carboxymethylcellulose and frozen into a block. The blocks were stored at approximately −20° C. prior to sectioning. Each blocked carcass was mounted on the object stage of a cryomicrotome (Leica CM3600 Cryomacrocut, Nussloch, Germany and Vibratome 9800, St. Louis, Mo.) maintained at approximately −20° C. and internal standards (3), which were plasma fortified with [^14C]-glucose at one concentration (approximately 0.05 μCi/mL), were placed into the frozen blocks, prior to sectioning, and were used for section thickness quality control. A number of whole-body sections (approximately 40 μm thick) were taken in the sagittal plane at various levels of interest using a whole-body cryomicrotome set at −20° C. Sagittal sections (20-50 μm thick) of frozen carcasses were exposed to phosphor imaging plates. Regions of images in tissues were converted to concentrations using standards. All of the major tissues, organs, and biological fluids were represented.
Tissue concentration data was determined for the following tissues and/or contents: adipose (brown and white), adrenal gland, bile (in duct), blood (cardiac), bone, bone marrow, brain (cerebrum, cerebellum, medulla), cecum (and contents), large intestine (and contents), epididymis, esophagus, eye (uvea and lens), Harderian gland, heart, kidney (cortex and medulla), liver, lung, lymph node, pancreas, pituitary gland, prostate gland, salivary gland, seminal vesicles, skeletal muscle, skin (pigmented and non-pigmented), small intestine (and contents), stomach (gastric mucosa and contents), spleen, spinal cord, testis, thymus, thyroid, and urinary bladder (and contents).
The imaging plate and sections were placed in light-tight exposure cassettes, in a copper-lined lead safe, for a 4-day exposure at room temperature. […] Quantification was performed by image densitometry using MCD image analysis software (v. 7.0, Interfocus Imaging Ltd) and a standard curve constructed from the integrated response [i.e., Molecular Dynamics Counts per square millimeter (MDC/mm^2)] and the nominal concentrations of the ^14C-calibration standards. The concentrations of radioactivity were expressed as the μg equivalents of [^14C]brincidofovir per gram sample (μg equiv/g). A lower limit of quantification (LLOQ) was applied to the data (See section 6.7.4).
Tissue concentrations that fell below the LLOQ were identified as being below the quantification limit (BQL). Tissue areas that were not visualized on autoradiographic images were identified as no sample (NS) and reported as BQL.

CCCCCCCCCCCCCCCCOCCCOP(=O)(O)CO[C@H](CO)Cn1ccc(N)nc1=O [[^14C] brincidofovir]
Tissue Concentration (168 h) (Skin (non-pigmented), 2 h IV infusion 15 mg/kg, Group 4, LLOQ 0.036): 0.226 μg equiv/g | Tissue Concentration (168 h) (Skin (non-pigmented), PO 15 mg/kg, Group 7, LLOQ 0.034): BQL | AUCall (Skin (non-pigmented), PO 15 mg/kg, Group 7): 14.0275 μg equiv · h/g | AUCall Ratio (PO/IV) (Skin (pigmented), 15 mg/kg): 0.18 | Cmax Ratio (PO/IV) (Skin (pigmented), 15 mg/kg): 0.15 | AUCall (Skin (pigmented), 2 h IV infusion 15 mg/kg, Group 4): 95.5050 μg equiv · h/g | Tissue Concentration (168 h) (Skin (pigmented), 2 h IV infusion 15 mg/kg, Group 4, LLOQ 0.036): 0.09 μg equiv/g | Tissue Concentration (168 h) (Skin (pigmented), PO 15 mg/kg, Group 7, LLOQ 0.034): BQL | AUCall (Skin (pigmented), PO 15 mg/kg, Group 7): 17.0405 μg equiv · h/g | AUCall Ratio (PO/IV) (Small Intestine, 15 mg/kg): 8.25 | Cmax Ratio (PO/IV) (Small Intestine, 15 mg/kg): 6.45 | AUCall (Small Intestine, 2 h IV infusion 15 mg/kg, Group 4): 1160.650 μg equiv · h/g | Tissue Concentration (168 h) (Small Intestine, 2 h IV infusion 15 mg/kg, Group 4, LLOQ 0.036): 0.339 μg equiv/g | Tissue Concentration (168 h) (Small Intestine, PO 15 mg/kg, Group 7, LLOQ 0.034): 5.867 μg equiv/g | AUCall (Small Intestine, PO 15 mg/kg, Group 7, 15 mg/kg): 9575.18 μg equiv · h/g | AUCall Ratio (PO/IV) (Spinal Cord, 15 mg/kg): 0.02 | Cmax Ratio (PO/IV) (Spinal Cord, 15 mg/kg): 0.04 | AUCall (Spinal Cord, 2 h IV infusion 15 mg/kg, Group 4): 5.7830 μg equiv · h/g | Tissue Concentration (168 h) (Spinal Cord, 2 h IV infusion 15 mg/kg, Group 4, LLOQ 0.036): BQL | Tissue Concentration (168 h) (Spinal Cord, PO 15 mg/kg, Group 7, LLOQ 0.034): BQL | AUCall (Spinal Cord, PO 15 mg/kg, Group 7): 0.1110 μg equiv · h/g | AUCall Ratio (PO/IV) (Spleen, 15 mg/kg): 0.27 | Cmax Ratio (PO/IV) (Spleen, 15 mg/kg): 0.18 | AUCall (Spleen, 2 h IV infusion 15 mg/kg, Group 4): 642.3590 μg equiv · h/g | Tissue Concentration (168 h) (Spleen, 2 h IV infusion 15 mg/kg, Group 4, LLOQ 0.036): 0.892 μg equiv/g | Tissue Concentration (168 h) (Spleen, PO 15 mg/kg, Group 7, LLOQ 0.034): 0.274 μg equiv/g | AUCall (Spleen, PO 15 mg/kg, Group 7): 172.2208 μg equiv · h/g | AUCall Ratio (PO/IV) (Stomach (mucosa), 15 mg/kg): 1.29 | Cmax Ratio (PO/IV) (Stomach (mucosa), 15 mg/kg): 4.75 | AUCall (Stomach (mucosa), 2 h IV infusion 15 mg/kg, Group 4): 70.2310 μg equiv · h/g | Tissue Concentration (168 h) (Stomach (mucosa), 2 h IV infusion 15 mg/kg, Group 4, LLOQ 0.036): 0.069 μg equiv/g | Tissue Concentration (168 h) (Stomach (mucosa), PO 15 mg/kg, Group 7, LLOQ 0.034): 0.042 μg equiv/g | AUCall (Stomach (mucosa), PO 15 mg/kg, Group 7): 90.7575 μg equiv · h/g | AUCall Ratio (PO/IV) (Testis, 15 mg/kg): 0.39 | Cmax Ratio (PO/IV) (Testis, 15 mg/kg): 0.17 | AUCall (Testis, 2 h IV infusion 15 mg/kg, Group 4): 77.2835 μg equiv · h/g | Tissue Concentration (168 h) (Testis, 2 h IV infusion 15 mg/kg, Group 4, LLOQ 0.036): 0.098 μg equiv/g | Tissue Concentration (168 h) (Testis, PO 15 mg/kg, Group 7, LLOQ 0.034): 0.041 μg equiv/g | AUCall (Testis, PO 15 mg/kg, Group 7): 30.3920 μg equiv · h/g | AUCall Ratio (PO/IV) (Thymus, 15 mg/kg): 0.13 | Cmax Ratio (PO/IV) (Thymus, 15 mg/kg): 0.11 | AUCall (Thymus, 2 h IV infusion 15 mg/kg, Group 4): 92.4355 μg equiv · h/g | Tissue Concentration (168 h) (Thymus, 2 h IV infusion 15 mg/kg, Group 4, LLOQ 0.036): 0.1 μg equiv/g | Tissue Concentration (168 h) (Thymus, PO 15 mg/kg, Group 7, LLOQ 0.034): BQL | AUCall (Thymus, PO 15 mg/kg, Group 7): 12.0843 μg equiv · h/g | AUCall Ratio (PO/IV) (Thyroid, 15 mg/kg): 0.13 | Cmax Ratio (PO/IV) (Thyroid, 15 mg/kg): 0.13 | AUCall (Thyroid, 2 h IV infusion 15 mg/kg, Group 4): 238.0230 μg equiv · h/g | Tissue Concentration (168 h) (Thyroid, 2 h IV infusion 15 mg/kg, Group 4, LLOQ 0.036): 0.459 μg equiv/g | Tissue Concentration (168 h) (Thyroid, PO 15 mg/kg, Group 7, LLOQ 0.034): 0.038 μg equiv/g | AUCall (Thyroid, PO 15 mg/kg, Group 7): 31.3395 μg equiv · h/g | AUCall Ratio (PO/IV) (Urinary Bladder, 15 mg/kg): 0.52 | Cmax Ratio (PO/IV) (Urinary Bladder, 15 mg/kg): 0.16 | AUCall (Urinary Bladder, 2 h IV infusion 15 mg/kg, Group 4): 215.5480 μg equiv · h/g | Tissue Concentration (168 h) (Urinary Bladder, 2 h IV infusion 15 mg/kg, Group 4, LLOQ 0.036): BQL | Tissue Concentration (168 h) (Urinary Bladder, PO 15 mg/kg, Group 7, LLOQ 0.034): 0.076 μg equiv/g | AUCall (Urinary Bladder, PO 15 mg/kg, Group 7): 111.2445 μg equiv · h/g
